These results are taken from patent US10981900B2, “Spiro compound and use thereof” (MEDSHINE DISCOVERY INC., priority 2017, dated 2021).

Read-outs that look alike come from different tables or passages of the source.

The target of one data set is T1, S1P1 receptor (Homo sapiens, UniProt P21453).
T1 construct: expressed in transfected cells
Nature of the data set: S1P1 receptor agonistic activity assay (PathHunter cell strain, chemiluminescent signal detection). The format is cell-based. The conditions noted are these: PathHunter cells, agonist mode, 37° C. for 90-180 minutes. Here is the method: 1. A PathHunter cell strain was thawed according to standard procedures;
2. The cell was seeded in 20 μl 384-well microplates and incubated at 37° C. for an appropriate time.
1. For an agonist assay, the cell was incubated with the sample to be tested to initiate a reaction;
2. The stock to be tested is diluted 5 folds to be a buffer solution;
3. The 5-fold diluted solution (5 μL) was added to the cells and incubated at 37° C. for 90-180 minutes. The solvent concentration was 1%.
1. 12.5 μL or 15 μL of PathHunter detection reagent (50 vol. %) was added in one portion and then incubated for 1 hour at room temperature to generate a detection signal;
2. The microplate was read using a PerkinElmer Envision™ instrument for chemiluminescent signal detection.
1. Compound activity analysis was performed using a CBIS Data Analysis Kit;
2. Calculation formula: % activity=100%×(average RLU of sample to be test-average RLU of solvents)/(average maximum control ligand−average RLU of solvents)

A short description of data set [1]: Evaluation of compounds' pharmacokinetics in SD rats in vivo (intravenous injection and oral administration). Also noted: species or system Sprague Dawley rats. The conditions noted are these: 3 mpk, single intravenous injection and oral administration, 3 mg/kg; for AUC: read-out: Concentration integral AUC; for half-life: read-out: Half life T1/2 (converted). Here is the method: Objective: To test the pharmacokinetics of compounds in SD rats in vivo.
Sprague Dawley rats (male, 200-300 g, 7-9 weeks old, Shanghai Slack)
The pharmacokinetics profile of the compound in rodent after intravenous injection and oral administrations was tested using a standard protocol. In the assay, the candidate compound was formulated into a clear solution, and was given to the rats through a single intravenous injection and oral administration. The vehicles for the intravenous injection and oral administration were an aqueous hydroxypropyl β-cyclodextrin solution or dimethyl sulfoxide in aqueous PEG400 solution in a proper proportion. The whole blood samples were collected within 24 hours, centrifuged at 3000 g for 15 minutes, and plasma samples were obtained by separating the supernatant. 4 times volume of acetonitrile solution containing an internal standard was added to precipitate proteins. After centrifugation, the supernatant was collected, to which an equal volume of water was added, and further centrifuged to collect the supernatant. The LC-MS/MS method was used to quantitatively analyze the plasma concentration, and the pharmacokinetics parameters, such as peak concentration, peak time, clearance rate, half-life, area under the curve, and bioavailability were calculated.

[2] abbreviates: male, Sprague-Dawley, rat, plasma.
Setting [3] is: male, Sprague-Dawley, rat, plasma, intravenous, read-out: Clearance.

T1 sequence (P21453 whole entry): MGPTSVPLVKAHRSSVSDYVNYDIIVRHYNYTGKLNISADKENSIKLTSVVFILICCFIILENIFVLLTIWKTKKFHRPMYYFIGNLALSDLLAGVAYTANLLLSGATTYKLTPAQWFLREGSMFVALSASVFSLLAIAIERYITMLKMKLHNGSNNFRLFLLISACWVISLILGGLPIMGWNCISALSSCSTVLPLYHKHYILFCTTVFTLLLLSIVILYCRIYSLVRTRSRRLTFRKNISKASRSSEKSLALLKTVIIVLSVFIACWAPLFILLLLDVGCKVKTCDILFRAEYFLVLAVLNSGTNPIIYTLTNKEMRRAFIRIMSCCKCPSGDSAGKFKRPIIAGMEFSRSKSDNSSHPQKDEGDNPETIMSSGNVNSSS

Broadly, the EC50 is the concentration at which the effect is half-maximal. Take `O=C1CC2(CCc3c(-c4noc(-c5ccc(OC(F)(F)F)cc5)n4)cccc32)CN1CCO` (centres unmarked) [Example 14]: the EC50 at S1P1 receptor is > 100 nM.
Same read-out and setting: under `CC(C)Nc1ncc(-c2nc(-c3cccc4c3CCC43CC(=O)N(CCO)C3)no2)cc1Br` (centres unmarked) [Example 20] stands 10 to 100 nM.
Turning to `CC(C)Oc1ccc(-c2nc(-c3cccc4c3CCC43CC(=O)N(CCO)C3)no2)cc1` (centres unmarked) [Example 13], the EC50 at S1P1 receptor is > 100 nM.
Take `COc1ccc(-c2nc(-c3cccc4c3CCC43CC(=O)N(CCO)C3)no2)cc1` (centres unmarked) [Example 4]: at S1P1 receptor, the EC50 is > 100 nM.
As to `CC(C)Oc1ccc(-c2nc(-c3cccc4c3CCC43CC(=O)N(CCO)C3)ns2)cc1C#N` (centres unmarked) [Example 40], the EC50 on S1P1 receptor was ≤ 10 nM.
Same read-out and setting: under `CC(C)Oc1ccc(-c2nc(-c3cccc4c3CCC43CC(=O)N(CC(=O)O)C3)no2)cc1C#N` (centres unmarked) [Example 28] stands ≤ 10 nM.
For `CC(C)Oc1ccc(-c2nc(-c3cccc4c3CCC43CCN(C4CC(C(=O)O)C4)C3)no2)cc1C#N` (single isomer, unassigned) [Example 47 Isomer 4], in data set [1], the “Bioavailability F” value turned out to be 89.6%, the “Concentration integral AUC” value stood at 8.483 µM·h, the “Half life T1/2” value is on record as 3.22 h and the clearance is given as 11.6 mL/min/kg.
Take `O=C1CC2(CCc3c(-c4noc(-c5cccc(Cl)c5)n4)cccc32)CN1CCO` (centres unmarked) [Example 2]: the EC50 at S1P1 receptor is > 100 nM.
Take `CC(C)Oc1ccc(-c2nc(-c3cccc4c3CCC43CCN(C4CC(C(=O)O)C4)C3)no2)cc1C#N` (single isomer, unassigned) [Example 47 Isomer 3]: the “Bioavailability F” value in data set [1] was found to be 48.7%. Moreover, in data set [1] (setting [2]), the AUC is 5.66 µM·h and the half-life is 3.98 h. For the same compound, the clearance in data set [1] (setting [3]) came out at 8.81 mL/min/kg.
Consider `CC(C)Oc1ccc(-c2nsc(-c3cccc4c3CCC43CC(=O)N(CCO)C3)n2)cc1C#N` (centres unmarked) [Example 39], for which, on S1P1 receptor, the EC50 fell in the range of 10 to 100 nM.
Still for that read-out and setting: under `O=C1CC2(CCc3c(-c4noc(-c5ccc(OC(F)F)cc5)n4)cccc32)CN1CCO` (centres unmarked) [Example 15] stands > 100 nM; under `CC(C)Oc1ccc(-c2nc(-c3cccc4c3CCC43CC(=O)N(CCN(C)C)C3)no2)cc1C#N` (centres unmarked) [Example 27], 10 to 100 nM.
Consider `COCCN1CC2(CCc3c(-c4noc(-c5ccc(OC(C)C)c(C#N)c5)n4)cccc32)CC1=O` (centres unmarked) [Example 24], for which, on S1P1 receptor, the EC50 was ≤ 10 nM.
Same read-out and setting: with `COc1cccc(-c2nc(-c3cccc4c3CCC43CC(=O)N(CCO)C3)no2)c1` (centres unmarked) [Example 5] the figure was > 100 nM; with `CC(C)Oc1ccc(-c2nc(-c3cccc4c3CCC43CC(=O)N(CCO)C3)no2)cc1Br` (centres unmarked) [Example 22], ≤ 10 nM.
`CC(C)Oc1ccc(-c2nc(-c3cccc4c3CCC43CC(=O)N(CCO)C3=O)no2)cc1C#N` (centres unmarked) [Example 36]: the EC50 on S1P1 receptor is ≤ 10 nM.
Same read-out and setting: with `CC(C)Oc1ccc(-c2nc(-c3cccc4c3CCC43CCN(C4CC(C(=O)O)C4)C3)no2)cc1C#N` (centres unmarked) [Example 47] the figure was ≤ 10 nM; with `CC(C)Oc1ccc(-c2nc(-c3cccc4c3CCC43CCC(=O)N(CCO)C3)no2)cc1C#N` (centres unmarked) [Example 34], ≤ 10 nM; with `CC(C)Oc1ccc(-c2ccc(-c3cccc4c3CCC43CC(=O)N(CCO)C3)s2)cc1C#N` (centres unmarked) [Example 43], 10 to 100 nM.
On the same count and under the same terms, with `CC(C)Oc1ccc(-c2nc(-c3cccc4c3CCC43CC(=O)N(CCO)C3)no2)cc1Cl` (centres unmarked) [Example 11] the figure was ≤ 10 nM.
Consider `CC(C)Oc1ccc(-c2nc(-c3cccc4c3CCC43CC(=O)N(CCO)C3)no2)cc1C#N` (single isomer, unassigned) [Example 21 isomer 2], for which, in data set [1], the “Bioavailability F” value is 89.6%, the “Concentration integral AUC” value was 8.483 µM·h, the “Half life T1/2” value came to 3.22 h and the clearance amounted to 11.6 mL/min/kg.
In the case of `CC(C)Oc1ccc(-c2nc(-c3cccc4c3CCC43CC(=O)N(CCO)C3)no2)c(C#N)c1` (centres unmarked) [Example 12], at S1P1 receptor, the EC50 was > 100 nM.
The same measure, in the same setting: with `COc1ccccc1-c1nc(-c2cccc3c2CCC32CC(=O)N(CCO)C2)no1` (centres unmarked) [Example 6] the figure was > 100 nM.
On the same count and under the same terms, under `CC(C)c1ccc(-c2nc(-c3cccc4c3CCC43CC(=O)N(CCO)C3)no2)cc1` (centres unmarked) [Example 17] stands > 100 nM; under `CC(C)Oc1ccc(-c2nc(-c3cccc4c3CCCC43CC(=O)N(CCO)C3)no2)cc1C#N` (centres unmarked) [Example 33], ≤ 10 nM; under `CC(C)Oc1ccc(-c2nc(-c3cccc4c3CCC43CCN(CC(=O)O)C3)no2)cc1C#N` (centres unmarked) [Example 48], ≤ 10 nM.
Same read-out and setting: with `O=C1CC2(CCc3c(-c4noc(-c5ccc(Cl)cc5)n4)cccc32)CN1CCO` (centres unmarked) [Example 1] the figure was > 100 nM; with `CC(C)Oc1ccc(-c2nc(-c3cccc4c3CCC43CCN(CCO)C3=O)no2)cc1C#N` (centres unmarked) [Example 30], 10 to 100 nM; with `CC(C)Oc1ccc(-c2nc(-c3cccc4c3CCC43CC(=O)N(CCO)C3)no2)cc1S(C)(=O)=O` (centres unmarked) [Example 23], 10 to 100 nM.
The term bioavailability denotes dose-corrected exposure relative to a reference, in per cent. As to `CC(C)Oc1ccc(-c2nc(-c3cccc4c3CC[C@@H]4NCCO)no2)cc1C#N` [Ozanimod, reference compound], in data set [1] (setting [2]), the AUC is 1.12 µM·h and the half-life is 5.24 h. For the same compound, the clearance in data set [1] (setting [3]) amounted to 46.3 mL/min/kg. In addition, in data set [1] (male, Sprague-Dawley, rat, plasma, oral, read-out: Bioavailability F), the bioavailability turned out to be 41.6%.
For `CC(C)Oc1ccc(-c2nc(-c3cccc4c3CCC43CC(=O)N(CCO)C3)no2)cc1C#N` (centres unmarked) [Example 21 mixture], the EC50 on S1P1 receptor was ≤ 10 nM.
The same measure, in the same setting: under `N#Cc1cccc(-c2nc(-c3cccc4c3CCC43CC(=O)N(CCO)C3)no2)c1` (centres unmarked) [Example 8] stands > 100 nM.
The same measure, in the same setting: under `CC(C)Oc1ccc(-c2nc(-c3cccc4c3CCC43CCC(CO)N3)no2)cc1C#N` (centres unmarked) [Example 32] stands 10 to 100 nM.
Still for that read-out and setting: with `CC(C)Oc1ccc(-c2nc(-c3cccc4c3CCC43CCN(CCO)C3)no2)cc1C#N` (centres unmarked) [Example 35] the figure was ≤ 10 nM; with `O=C1CC2(CCc3c(-c4noc(-c5ccccc5Cl)n4)cccc32)CN1CCO` (centres unmarked) [Example 3], > 100 nM; with `N#Cc1ccc(-c2nc(-c3cccc4c3CCC43CC(=O)N(CCO)C3)no2)cc1` (centres unmarked) [Example 7], > 100 nM.
In the case of `CC(C)Oc1ccc(-c2ncc(-c3cccc4c3CCC43CC(=O)N(CCO)C3)s2)cc1C#N` (centres unmarked) [Example 41], on S1P1 receptor, the EC50 was ≤ 10 nM.
At S1P1 receptor, `CC(C)Oc1ccc(-c2ncc(-c3cccc4c3CCC43CC(=O)N(CCO)C3)o2)cc1C#N` (centres unmarked) [Example 42] came in with an EC50 of 10 to 100 nM.
The same measure, in the same setting: under `CC(C)Oc1ccc(-c2nc(-c3cccc4c3CCC43CCC(=O)N3CCO)no2)cc1C#N` (centres unmarked) [Example 31] stands 10 to 100 nM.
Still for that read-out and setting: with `CC(C)Oc1ccc(-c2nnc(-c3cccc4c3CCC43CC(=O)N(CCO)C3)s2)cc1C#N` (centres unmarked) [Example 38] the figure was ≤ 10 nM.
On to `CC(C)Oc1ccc(-c2nc(-c3cccc4c3CCC43CC(=O)N(CCS(C)(=O)=O)C3)no2)cc1C#N` (centres unmarked) [Example 25], for which the EC50 on S1P1 receptor is ≤ 10 nM.
On the same count and under the same terms, under `CC(C)Oc1ccc(-c2nc(-c3cccc4c3CCC43CC(=O)N(CCO)C3)no2)cc1OC(F)F` (centres unmarked) [Example 10] stands ≤ 10 nM; under `Cc1ccc(-c2nc(-c3cccc4c3CCC43CC(=O)N(CCO)C3)no2)cc1` (centres unmarked) [Example 16], > 100 nM.
Same read-out and setting: under `CC(C)Oc1ccc(-c2cnc(-c3cccc4c3CCC43CC(=O)N(CCO)C3)cn2)cc1C#N` (centres unmarked) [Example 45] stands ≤ 10 nM; under `CC(C)Oc1ccc(-c2nc(-c3cccc4c3CCC43COC(=O)N3CCO)no2)cc1C#N` (centres unmarked) [Example 37], 10 to 100 nM.
Regarding `CC(C)Oc1ccc(-c2ncc(-c3cccc4c3CCC43CC(=O)N(CCO)C3)cn2)cc1C#N` (centres unmarked) [Example 44], the EC50 at S1P1 receptor is ≤ 10 nM.
On the same count and under the same terms, under `CC(C)Oc1ccc(-c2nc(-c3cccc4c3CCC43CC(=O)N(CCCCC(=O)O)C3)no2)cc1C#N` (centres unmarked) [Example 29] stands ≤ 10 nM; under `N#Cc1ccccc1-c1nc(-c2cccc3c2CCC32CC(=O)N(CCO)C2)no1` (centres unmarked) [Example 18], > 100 nM; under `CC(C)Oc1ccc(-c2nc(-c3cccc4c3CCC43CC(=O)N(CC(=O)N(C)C)C3)no2)cc1C#N` (centres unmarked) [Example 26], ≤ 10 nM.
The same measure, in the same setting: under `O=C1CC2(CCc3c(-c4noc(-c5ccc(OCC6CC6)cc5)n4)cccc32)CN1CCO` (centres unmarked) [Example 19] stands > 100 nM.
